Read-outs that look alike come from different tables or passages of the source. One block for each compound: values may come before it.
What was measured:
[1] = biological target: T1, L1210 TS (Mus musculus, UniProt P07607); assay: Inhibition of purified TS from L1210 murine leukemic cells (3H release assay); type: biochemical
T1 construct: purified TS from L1210 murine leukemic cells; endogenous in cells; host or cells: L1210 murine leukemic cells (enzyme purified from them)
Method: ^b Inhibition of purified TS from L1210 cells was determined by the
^3 Hrelease assay method as described previously (Sikora et al.)

[2] = system: L1210 cells; assay: Inhibition of growth of L1210 cells in culture; type: cell-based, murine; details: for IC50: Mus musculus, L1210
Method: ^d Cells were incubated in RPMI 1640 medium supplemented with 10%
nondialyzed fetal calf serum, and were counted after 48 h of drug
^e The IC50 for cells grown in the presence of 10 μM dThd
increased only to 0.84 μM.
It was therefore of interest to determine whether 2-aza analogues such as 10 also require both dThd and HX for complete protection from their growth inhibitory effect.

[3] = biological target: T2, Mouse liver FPGS (Mus musculus, UniProt P48760); assay: Substrate activity for partially purified FPGS from mouse liver; type: biochemical
T2 sequence (P48760 43-587): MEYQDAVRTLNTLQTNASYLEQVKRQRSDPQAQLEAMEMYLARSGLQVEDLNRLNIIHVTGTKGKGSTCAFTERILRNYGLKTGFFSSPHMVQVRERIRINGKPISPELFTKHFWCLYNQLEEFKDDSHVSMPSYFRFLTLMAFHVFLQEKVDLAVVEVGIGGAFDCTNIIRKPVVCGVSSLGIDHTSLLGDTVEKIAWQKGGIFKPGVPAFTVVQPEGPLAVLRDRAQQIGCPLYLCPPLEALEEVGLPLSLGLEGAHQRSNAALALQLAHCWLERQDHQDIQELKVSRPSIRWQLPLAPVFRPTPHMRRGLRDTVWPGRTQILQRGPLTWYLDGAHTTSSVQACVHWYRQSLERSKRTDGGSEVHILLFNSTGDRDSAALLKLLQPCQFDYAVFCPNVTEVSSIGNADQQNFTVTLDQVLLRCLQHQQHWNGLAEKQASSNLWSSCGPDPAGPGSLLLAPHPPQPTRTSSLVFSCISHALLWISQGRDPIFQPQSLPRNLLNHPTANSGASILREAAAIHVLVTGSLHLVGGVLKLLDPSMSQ
From the text: ^c Substrate activity for partially purified FPGS from mouse liver wa
determined as described previously (Moran et al., Mol. Pharmacol. 27:156,
1985), with relative Vmax and k' values expressed in comparison with […]

[4] = system: L1210 cells; details: cited from earlier work; for IC50: 48 h, RPMI 1640 with 10% nondialyzed fetal calf serum
[5] = biological target: T1, L1210 TS; details: cited from earlier work
[6] = biological target: T2, Mouse liver FPGS; details: relative to folic acid (1.0); cited from earlier work
[7] = physiologic pH; cited from earlier work
[8] = clinical trials; cited from earlier work
[9] = compared with reduced folates and MTX; cited from earlier work

T1 sequence (P07607 whole entry): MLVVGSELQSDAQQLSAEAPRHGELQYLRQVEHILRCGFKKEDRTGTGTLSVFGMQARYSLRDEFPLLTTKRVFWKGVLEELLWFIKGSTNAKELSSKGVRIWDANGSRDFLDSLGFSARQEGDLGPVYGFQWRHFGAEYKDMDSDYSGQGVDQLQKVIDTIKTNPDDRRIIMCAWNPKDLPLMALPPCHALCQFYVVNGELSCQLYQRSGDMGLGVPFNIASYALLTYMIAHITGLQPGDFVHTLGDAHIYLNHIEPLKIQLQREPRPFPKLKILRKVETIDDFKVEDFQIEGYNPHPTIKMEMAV

increase in TS binding ([1]; 10 versus 2-desamino analogue 3): ca. sixfold
Ki ([1]; purified TS from L1210 cells, Table 1): 330 nM
difference in IC50 with and without dThd ([2]; L1210 cells, dThd 0.84 versus 0.42 μM): twofold
IC50 ([2]; 10 μM dThd (footnote e), read-out: IC50, L1210 cells grown in the presence of dThd): 840 nM
IC50 ([2]; 48 h, RPMI 1640 with 10% nondialyzed fetal calf serum, without dThd, read-out: IC50, L1210 cells): 420 nM
k'(rel) lower than the k'(rel) of 1 or 3 ([3]; ratio 10 versus 1 or 3): 4.6 -fold
k'(rel) greater than that for CB3717 ([3]; ratio 10 versus CB3717): twofold
Vmax (rel), Mouse liver FPGS ([3]; relative to folic acid (1.0)): 1.6
k'(rel), Mouse liver FPGS ([3]; relative to folic acid (1.0), Km (app) divided into Vmax (rel)): 6.3
Structure (SMILES): O=C(O)CC[C@H](NC(=O)c1ccc(NCc2ccc3nn[nH]c(=O)c3c2)cc1)C(=O)O [Compound 10, N-[4-(1,2,3-Benzotriazin-4(3H)-on-6-yl)methyl] aminobenzoyl-L-glutamic Acid]
difference in IC50 with and without dThd compared with 1, 2 and 3 ([2]; L1210 cells): comparable to that reported for 1 and 3, but much lower than that reported for 2
potency against cultured cells relative to 2-desamino-5,8-dideazafolate ([2]; L1210 cells, 10 versus 3): comparable

Structure (SMILES): O=C(O)CC[C@H](NC(=O)c1ccc(NCc2ccc3nc[nH]c(=O)c3c2)cc1)C(=O)O [Compound 3, 2-Desamino-5,8-dideazafolic Acid]
IC50 [4]: 430 nM
Ki ([5]; purified TS from L1210 cells, Table 1, read-out: Ki, L1210 TS): 2000 nM
Ki ([5]; reported previously (Jackman et al.), read-out: Ki for TS inhibition): 2000 nM
Vmax (rel), Mouse liver FPGS [6]: 1.3
k'(rel), Mouse liver FPGS [6]: 29

Structure (SMILES): Nc1nc2ccc(CNc3ccc(C(=O)N[C@@H](CCC(=O)O)C(=O)O)cc3)cc2c(=O)[nH]1 [Compound 1, 5,8-Dideazafolic Acid]
IC50 [4]: 2700 nM
Vmax (rel), Mouse liver FPGS [6]: 1.3
k'(rel), Mouse liver FPGS [6]: 29

Structure (SMILES): C#CCN(Cc1ccc2nc(N)[nH]c(=O)c2c1)c1ccc(C(=O)N[C@@H](CCC(=O)O)C(=O)O)cc1 [Compound 2, N^10 -Propargyl-5,8-dideazafolic Acid]
reversal of inhibitory effect on growth of L1210 cells by thymidine plus folinic acid ([4]; 5 μM dThd and 5 μM folinic acid): restored to normal levels
reversal of inhibitory effect on growth of L1210 cells by thymidine ([4]; 10 μM thymidine alone): not fully reversed
reversal of inhibitory effect on growth of L1210 cells by thymidine plus hypoxanthine ([4]; 10 μM thymidine and 50 μM hypoxanthine): restored to normal levels
IC50 [4]: 3500 nM
solubility [7]: low solubility at physiologic pH
toxicities in clinical use [8]: hepatic and renal toxicities
Vmax (rel), Mouse liver FPGS [6]: 0.88
k'(rel), Mouse liver FPGS [6]: 2.3
transport mechanism of cell entry [9]: distinct from that of reduced folates and MTX
